Results: patent US20240034737A1, “Heterocyclic Derivatives as P2X7 Receptor Antagonists” (BREYE THERAPEUTICS APS, priority 2020, published 2024)

What was measured:
mP2X7 = mP2X7 (Mus musculus (Mouse), UniProt Q9Z1M0); test: mP2X7 channel calcium-influx assay (Fluo-8 NW, FLIPR TETRA, Bz-ATP stimulation); type: cell-based
How it was run: (§1)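 HEK-293 cells stably expressing human or mouse P2X7, preloaded with Fluo-8 NW dye for 1 h at RT. Compounds added, Bz-ATP-evoked Ca2+ influx followed as fluorescence kinetics over 5 min on FLIPR TETRA; A438079 served as reference antagonist.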

P2X7 receptor = P2X7 receptor (Homo sapiens (Human), UniProt Q99572); test: Human P2X7 channel calcium-influx assay (Fluo-8 NW, FLIPR TETRA, Bz-ATP stimulation); type: cell-based; settings: HEK-293 cells stably transfected with P2X7 receptor, Low Divalent Cation Assay Buffer, read-out: hP2X7 IC50
Sequence of P2X7 receptor (Q99572 whole entry): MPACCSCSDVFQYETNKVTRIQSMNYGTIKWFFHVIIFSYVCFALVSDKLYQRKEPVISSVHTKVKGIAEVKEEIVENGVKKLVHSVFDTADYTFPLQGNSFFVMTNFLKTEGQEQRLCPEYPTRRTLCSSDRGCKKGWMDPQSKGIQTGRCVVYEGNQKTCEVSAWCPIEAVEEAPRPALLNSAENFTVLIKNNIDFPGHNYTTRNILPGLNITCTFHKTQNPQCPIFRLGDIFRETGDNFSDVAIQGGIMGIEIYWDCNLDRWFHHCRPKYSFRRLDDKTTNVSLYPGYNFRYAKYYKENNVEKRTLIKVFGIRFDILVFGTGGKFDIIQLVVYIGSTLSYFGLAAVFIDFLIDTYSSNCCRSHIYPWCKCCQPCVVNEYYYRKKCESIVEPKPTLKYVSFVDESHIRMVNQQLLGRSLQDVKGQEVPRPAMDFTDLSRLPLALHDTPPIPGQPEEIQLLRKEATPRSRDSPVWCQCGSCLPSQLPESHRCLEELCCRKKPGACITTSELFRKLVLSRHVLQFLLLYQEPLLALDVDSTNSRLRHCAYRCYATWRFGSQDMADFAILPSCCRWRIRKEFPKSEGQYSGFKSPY
How it was run: as §1

CYP4503A4 = CYP4503A4 metabolic induction (mRNA expression) in human cryopreserved platable hepatocytes; type: in vitro ADME; settings: 10 μM test compound, two days treatment, mRNA by QuantiGene Plex 2.0
Description: In Vitro Evaluation of Test Compounds for CYP4503A4 Metabolic Induction Using Human Liver Hepatocytes.
CYP induction assessment was performed using human cryopreserved platable hepatocytes. Test compound was assessed at three or six different concentrations in duplicate.
A sandwich culture of platable cryopreserved hepatocytes was used with one day recovery period after plating. Assessment of cell morphology and confluency was performed using a phase-contrast microscope for representative wells.
The plated hepatocyte cell monolayers were treated with test compound, negative and positive controls for two days changing medium every 24 hours. On the fourth day, assessment of cell morphology and confluency was repeated to ensure cell monolayer integrity. Assessment of cell morphology and confluency was performed using a phase-contrast microscope for representative wells.
Cell monolayers were assessed for test compound cytotoxicity by an adenosine triphosphate (ATP) content assay in a separate plate.
Expression levels of mRNA for CYP1A2, CYP2B6, and CYP3A4 were evaluated by the QuantiGene® Plex 2.0 methodology.

Sequence of mP2X7 (Q9Z1M0 whole entry): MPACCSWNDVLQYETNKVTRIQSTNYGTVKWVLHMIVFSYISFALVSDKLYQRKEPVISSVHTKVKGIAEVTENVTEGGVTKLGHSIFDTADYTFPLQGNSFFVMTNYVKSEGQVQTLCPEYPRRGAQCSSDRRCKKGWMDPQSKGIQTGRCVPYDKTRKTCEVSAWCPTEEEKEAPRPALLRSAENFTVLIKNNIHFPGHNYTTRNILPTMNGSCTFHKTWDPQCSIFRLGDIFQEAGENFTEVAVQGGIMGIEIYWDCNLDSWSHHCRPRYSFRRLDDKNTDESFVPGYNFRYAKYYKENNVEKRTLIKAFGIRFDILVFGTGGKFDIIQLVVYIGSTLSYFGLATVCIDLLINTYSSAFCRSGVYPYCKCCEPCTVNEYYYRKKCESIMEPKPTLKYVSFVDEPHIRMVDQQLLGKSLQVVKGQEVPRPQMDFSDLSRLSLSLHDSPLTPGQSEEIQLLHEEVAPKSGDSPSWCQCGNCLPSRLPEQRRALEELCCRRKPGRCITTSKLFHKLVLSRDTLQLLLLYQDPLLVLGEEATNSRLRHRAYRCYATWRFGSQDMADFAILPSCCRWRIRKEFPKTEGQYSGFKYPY

| Compound | IC50 (mP2X7) | IC50 (P2X7 receptor) | CYP4503A4 mRNA fold increase at 10 μM (CYP4503A4) |
| --- | --- | --- | --- |
| Cc1nsc(OCC2CCN(C(CNC(=O)c3c(F)cccc3Cl)c3scnc3C(F)F)CC2)n1 (stereo not drawn) [Example 85, 2-Chloro-N-{2-[4-(difluoromethyl)-1,3-thiazol-5-yl]-2-(4-{[(3-methyl-1,2,4-thiadiazol-5-yl)oxy]methyl}piperidin-1-yl)ethyl}-6-fluorobenzamide] | 68.7 nM | 32.4 nM | 9.7 fold |
| N#Cc1cncc(OCC2CCN(C(CNC(=O)c3c(F)cccc3Cl)c3scnc3C(F)F)CC2)c1 (stereo not drawn) [Example 91, 2-Chloro-N-[2-(4-{[(5-cyanopyridin-3-yl)oxy]methyl}piperidin-1-yl)-2-[4-(difluoromethyl)-1,3-thiazol-5-yl]ethyl]-6-fluorobenzamide] | 38.9 nM | 39.5 nM | 7.4 fold |
| Cc1ccc(OCC2CCN(C(CNC(=O)c3c(F)cccc3Cl)c3scnc3C(F)F)CC2)nn1 (stereo not drawn) [Example 101, 2-Chloro-N-{2-[4-(difluoromethyl)-1,3-thiazol-5-yl]-2-(4-{[(6-methylpyridazin-3-yl)oxy]methyl}piperidin-1-yl)ethyl}-6-fluorobenzamide] | 76.6 nM | 87.8 nM | 3.9 fold |
| O=C(NCC(c1scnc1C(F)F)N1CCC(COc2cc(F)ncn2)CC1)c1c(F)cccc1Cl (stereo not drawn) [Example 103, 2-Chloro-N-{2-[4-(difluoromethyl)-1,3-thiazol-5-yl]-2-(4-{[(6-fluoropyrimidin-4-yl)oxy]methyl}piperidin-1-yl)ethyl}-6-fluorobenzamide] | 34 nM | 21.1 nM | 5.0 fold |
| O=C(NCC(c1scnc1C(F)F)N1CCC(COc2ccc(F)nn2)CC1)c1c(F)cccc1Cl (stereo not drawn) [Example 104, 2-Chloro-N-{2-[4-(difluoromethyl)-1,3-thiazol-5-yl]-2-(4-{[(6-fluoropyridazin-3-yl)oxy]methyl}piperidin-1-yl)ethyl}-6-fluorobenzamide] | 103 nM | 49.6 nM | 7.4 fold |
| O=C(NCC(c1scnc1C(F)F)N1CCC(COc2nccnc2F)CC1)c1c(F)cccc1Cl (stereo not drawn) [Example 106, 2-Chloro-N-{2-[4-(difluoromethyl)-1,3-thiazol-5-yl]-2-(4-{[(3-fluoropyrazin-2-yl)oxy]methyl}piperidin-1-yl)ethyl}-6-fluorobenzamide] | 30.5 nM | 39.6 nM | 4.9 fold |
| N#Cc1cc(OC2CCN(C(CNC(=O)c3c(F)cccc3Cl)c3scnc3C(F)F)CC2)ccn1 (stereo not drawn) [Example 127, 2-Chloro-N-(2-{4-[(2-cyanopyridin-4-yl)oxy]piperidin-1-yl}-2-[4-(difluoromethyl)-1,3-thiazol-5-yl]ethyl)-6-fluorobenzamide] | 61.7 nM | 49 nM | 6.3 fold |

The next lines start with the values.

| IC50 (mP2X7) | IC50 (P2X7 receptor) | CYP4503A4 mRNA fold increase at 10 μM (CYP4503A4) | Compound |
| --- | --- | --- | --- |
| 30.4 nM | 36.9 nM | 6.4 fold | O=C(NCC(c1scnc1C(F)F)N1CCC(COc2nc(C3CC3)ns2)CC1)c1c(F)cccc1Cl (stereo not drawn) [Example 87, 2-Chloro-N-[2-(4-{[(3-cyclopropyl-1,2,4-thiadiazol-5-yl)oxy]methyl}piperidin-1-yl)-2-[4-(difluoromethyl)-1,3-thiazol-5-yl]ethyl]-6-fluorobenzamide] |
| 22.7 nM | 43.6 nM | 6.5 fold | O=C(NCC(c1scnc1C(F)F)N1CCC(COc2nc3ccccc3s2)CC1)c1c(F)cccc1Cl (stereo not drawn) [Example 93, N-(2-{4-[(1,3-Benzothiazol-2-yloxy)methyl]piperidin-1-yl}-2-[4-(difluoromethyl)-1,3-thiazol-5-yl]ethyl)-2-chloro-6-fluorobenzamide] |
| 25 nM | 40.6 nM | 6.5 fold | N#Cc1cc(OCC2CCN(C(CNC(=O)c3c(F)cccc3Cl)c3scnc3C(F)F)CC2)ccn1 (stereo not drawn) [Example 110, 2-Chloro-N-[2-(4-{[(2-cyanopyridin-4-yl)oxy]methyl}piperidin-1-yl)-2-[4-(difluoromethyl)-1,3-thiazol-5-yl]ethyl]-6-fluorobenzamide] |
| 11.3 nM | 28.5 nM | 9.8 fold | O=C(NCC(c1scnc1C(F)F)N1CCC(COc2nccn3nccc23)CC1)c1c(F)cccc1Cl (stereo not drawn) [Example 116, 2-Chloro-N-{2-[4-(difluoromethyl)-1,3-thiazol-5-yl]-2-[4-({pyrazolo[1,5-a]pyrazin-4-yloxy}methyl)piperidin-1-yl]ethyl}-6-fluorobenzamide] |
| 18.5 nM | 18.1 nM | 6.9 fold | O=C(NCC(c1scnc1C(F)F)N1CCC(COc2cccc(F)n2)CC1)c1c(F)cccc1Cl (stereo not drawn) [Example 124, 2-Chloro-N-{2-[4-(difluoromethyl)-1,3-thiazol-5-yl]-2-(4-{[(6-fluoropyridin-2-yl)oxy]methyl}piperidin-1-yl)ethyl}-6-fluorobenzamide] |
| 23 nM | 16.1 nM | 5.5 fold | O=C(NCC(c1scnc1C(F)F)N1CCC(COc2ccnc(F)c2)CC1)c1c(F)cccc1Cl (stereo not drawn) [Example 125, 2-Chloro-N-{2-[4-(difluoromethyl)-1,3-thiazol-5-yl]-2-(4-{[(2-fluoropyridin-4-yl)oxy]methyl}piperidin-1-yl)ethyl}-6-fluorobenzamide] |
